Tests used:
[1] = target: T1, dopamine D2 receptor (Rattus norvegicus, UniProt P61169); test: Ratio Ant/Ag (intrinsic activity from low-affinity/high-affinity agonist state); assay type: binding; settings: Spiper. IC50 / Quin. IC50
From the text: Efforts to induce antipsychotic activity with dopamine autoreceptor agonists have been successful (Corsini et al. Adv. Biochem. […] […] et at. […] A method for determining intrinsic activity at the dopamine D2 receptor was recently reported [Lahti et al., Mol. Pharm. […] Intrinsic activity is predicted using the ratio of the "low-affinity agonist" (LowAg) state of the receptor and the "high-affinity agonist" ([…]) state of the receptor, […]. These ratios correlate with the agonist, partial agonist, and antagonist activities of a given compound, which activities characterize a compounds ability to elicit an antipsychotic effect.

[2] = target: T2, dopamine autoreceptor (Rattus norvegicus, UniProt P61169); test: 3H-quinpirole (Quin.) binding, affinity for the dopamine autoreceptor, homogenized rat striatal brain tissue
T2 construct: homogenized rat striatal brain tissue; from tissue; host or cells: rat striatal brain tissue, homogenized

[3] = target: T1, dopamine D2 receptor; test: 3H-spiroperidol (Spiper.) binding, affinity for the dopamine D-2 receptor, homogenized limbic brain tissue; parameters: homogenized limbic brain tissue; from tissue; host or cells: limbic brain tissue, homogenized
[4] = test system: α1; test: α1 (no method described); assay type: binding

T1 sequence (P61169 whole entry): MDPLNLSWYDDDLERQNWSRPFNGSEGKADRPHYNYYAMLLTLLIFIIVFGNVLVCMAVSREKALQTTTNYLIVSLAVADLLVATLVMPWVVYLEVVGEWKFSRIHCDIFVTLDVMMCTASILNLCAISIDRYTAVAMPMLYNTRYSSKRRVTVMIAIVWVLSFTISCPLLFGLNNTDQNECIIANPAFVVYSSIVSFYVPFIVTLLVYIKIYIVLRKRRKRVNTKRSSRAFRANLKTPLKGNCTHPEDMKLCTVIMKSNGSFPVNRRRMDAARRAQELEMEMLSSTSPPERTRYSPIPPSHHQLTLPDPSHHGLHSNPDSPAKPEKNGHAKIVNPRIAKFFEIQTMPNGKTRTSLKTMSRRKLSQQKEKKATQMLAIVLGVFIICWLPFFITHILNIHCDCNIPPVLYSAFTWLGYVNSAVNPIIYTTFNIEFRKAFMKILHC
T2 sequence (P61169 whole entry): as above

| SMILES | Ratio Ant/Ag [1] | IC50 [2] [nM] | IC50 [3] [nM] | IC50 [4] [nM] |
| --- | --- | --- | --- | --- |
| CCCN(CCC)CC1CCc2ccc(O)cc2O1 (centres unmarked) | 88 | 102 | 8960 |  |
| COc1ccc2c(c1)OC(CNCCC(C)C)CC2 (centres unmarked) | 32 | 831 | 26500 |  |
| CCCNCC1CCc2ccc(O)cc2O1 (centres unmarked) |  |  |  | 1160 |
| CCCCCCNCC1CCc2ccc(O)cc2O1 (centres unmarked) |  |  |  | 221 |
| CCCCNCC1CCc2ccc(OC)cc2O1 (centres unmarked) | 32 | 733 | 23600 |  |

From patent publication US5684039A, “Chroman-2-ylmethylamino derivatives” (American Home Products Corporation, priority 1996, dated 1997)
